# Several values for one entry are separate records, joined by “and”; a condition that tells them apart may be missing. Equal entries are not always repeated.
# System: not listed separately
# Assay: DNDI: Cytotoxicity against human MRC-5 lung fibroblast cells.
# Conditions: IC50
row,SMILES,IC50
1,Oc1c(C(Nc2nccs2)c2ccc(F)cc2)ccc2cccnc12 (stereo not given),> 20.8 µM
2,COc1ccc(C2=NC3(CCN(C(C)C)CC3)NC(c3ccccc3O)C2)cc1 (stereo not given),> 20.8 µM
3,CC(=O)O[C@H]1CCC2C3CCC4=CC(=O)CC[C@]4(C)C3C(=O)C[C@@]21C (stereo not given in full),6.4 µM
4,Cn1ccnc1Sc1cnn(-c2ccccc2)c(=O)c1Cl,> 20.8 µM
5,Cc1ccc(-n2nnnc2CNC(=O)c2cccs2)cc1C,> 41.7 µM
6,CNC(C)(C)Cc1c2c(cc3c1CCC3)CCC2,> 41.7 µM
7,CN(C)CCCNc1c2c(nc3ccccc13)CCC2,5.76 µM
8,C[n+]1ccc(/C=C/c2c[nH]c3ccc(Br)cc23)cc1,> 4.17 µM
9,N/C(=N\OC(=O)c1cccs1)c1ccccc1Cl,> 20.8 µM
10,O=C1/C(=C\c2cccnc2)CCc2ccccc21,> 20.8 µM
11,CCCCC(=O)NC(c1ccc(N(C)C)cc1)c1ccc2cccnc2c1O (stereo not given),> 20.8 µM
12,O=C(N/N=C/c1sc2ccccc2c1O)c1ccc(O)cc1O,> 4.17 µM
13,O=C(NC(c1ccccc1F)c1ccc2cccnc2c1O)c1ccccc1 (stereo not given),> 4.17 µM
14,COc1ccc(C2=NNc3cccc4c(OC)ccc2c34)cc1OC,> 41.7 µM
15,S=C(N/N=C(/c1ccccc1)c1ccccn1)Nc1ccccc1,> 4.17 µM
16,N=C(N)N/N=C1/C(=O)Nc2ccc(Br)cc21,> 41.7 µM

# System: Trypanosoma brucei brucei
# Assay: microbe, parasite or virus in culture
# Type: functional, organism-based, STIB 795
# Conditions: not given
row,SMILES,IC50
1,Oc1c(C(Nc2nccs2)c2ccc(F)cc2)ccc2cccnc12 (stereo not given),2.37 µM and > 10.4 µM
2,COc1ccc(C2=NNc3cccc4c(OC)ccc2c34)cc1OC,5.38 µM
3,O=C1CC(n2nnn(C3CCCCC3)c2=S)C2COC1O2 (stereo not given),5.11 µM and 1.33 µM
4,COc1ccc(-c2nn(C3CC(=O)C4OCC3O4)c(=S)n2C)cc1OC (stereo not given),5.08 µM
5,CCN1/C(=C/C2=CC(=O)CC(C)(C)C2)Sc2ccccc21,5.54 µM
6,CN(C)c1ccc(/C=C2\SC(=N)N(c3nccs3)C2=O)cc1,6.09 µM and 15.5 µM

# Same assay, conditions: Trypanosoma brucei, STIB 795
row,SMILES,IC50
1,COc1ccc(C2=NC3(CCN(C(C)C)CC3)NC(c3ccccc3O)C2)cc1 (stereo not given),1.37 µM
2,CC(=O)O[C@H]1CCC2C3CCC4=CC(=O)CC[C@]4(C)C3C(=O)C[C@@]21C (stereo not given in full),0.39 µM
3,Cn1ccnc1Sc1cnn(-c2ccccc2)c(=O)c1Cl,5.27 µM
4,Cc1ccc(-n2nnnc2CNC(=O)c2cccs2)cc1C,5.85 µM
5,CNC(C)(C)Cc1c2c(cc3c1CCC3)CCC2,4.62 µM
6,CN(C)CCCNc1c2c(nc3ccccc13)CCC2,1.82 µM
7,C[n+]1ccc(/C=C/c2c[nH]c3ccc(Br)cc23)cc1,5.26 µM
8,N/C(=N\OC(=O)c1cccs1)c1ccccc1Cl,0.766 µM
9,O=C1/C(=C\c2cccnc2)CCc2ccccc21,5.02 µM
10,CCCCC(=O)NC(c1ccc(N(C)C)cc1)c1ccc2cccnc2c1O (stereo not given),5.84 µM
11,O=C(N/N=C/c1sc2ccccc2c1O)c1ccc(O)cc1O,4.44 µM
12,O=C(NC(c1ccccc1F)c1ccc2cccnc2c1O)c1ccccc1 (stereo not given),6.12 µM
13,COc1ccc(C2=NNc3cccc4c(OC)ccc2c34)cc1OC,5.58 µM
14,S=C(N/N=C(/c1ccccc1)c1ccccn1)Nc1ccccc1,4.84 µM
15,Fc1ccc(C2CCCN(CCN3CCCC3)c3cc(F)ccc32)cc1 (stereo not given),> 10.4 µM
16,Cc1cccc(/C=N\Nc2nncc(-c3ccccc3)n2)n1,> 10.4 µM
17,O=c1c2ccccc2nc(SCc2cccnc2)n1Cc1ccco1,> 10.4 µM
18,Cc1cc(=O)[nH]c(Nc2ccc(Br)cc2)n1,> 10.4 µM
19,COc1ccc2c(C)c/c(=N/N=C\c3ccccc3O)[nH]c2c1,> 10.4 µM
20,Cc1cnc(NC(=O)c2ccc(Cl)c(Cl)c2)s1,> 10.4 µM
21,CC(C)(C)c1cc(C(c2ccncc2)N2CCCC2)cc(C(C)(C)C)c1O (stereo not given),> 10.4 µM
22,N=C(NOC(=O)c1ccoc1)c1ccc(Br)cc1,> 10.4 µM
23,O=C(NCC1CCCO1)c1cccc(Oc2cc(-c3ccc(F)cc3)ncn2)c1 (stereo not given),> 10.4 µM
24,C/C(=C\c1nsc(Nc2ccc(F)c(Cl)c2)n1)NCCC1=CCCCC1,> 10.4 µM

row,SMILES,IC50
1,Cn1c(=O)cc(NNc2ccccc2)[nH]c1=O,> 10.4 µM
2,COc1ccc(C(=O)c2ccc(N3CCNCC3)c(F)c2)cc1Br,> 10.4 µM
3,OCCSc1nc2ccccc2nc1N/N=C/c1ccccc1O,> 10.4 µM
4,CC1C(=O)Nc2ccc(S(=O)(=O)N3CCOCC3)cc2NC1=O (stereo not given),> 10.4 µM
5,CCN1CCN(c2cc(C)c3cc(NC(=O)c4ccccc4F)ccc3n2)CC1,> 10.4 µM
6,CC(C)CNC(=O)Nc1cccc(-c2noc(C3(c4ccccc4)CC3)n2)c1,> 10.4 µM
7,COc1ccc(C(=O)CC(SCCO)c2ccc(F)cc2)cc1OC (stereo not given),> 10.4 µM
8,CN1CCC(C2Oc3ccc(F)cc3Sc3ccc(Cl)cc32)CC1 (stereo not given),> 10.4 µM
9,COc1ccc(OC)c(/C=C/C(=O)Nc2ccc(C(=O)OCCC(C)C)cc2)c1,> 10.4 µM
10,CCOc1nc(Nc2ccc(Cl)cc2)nc(NC2CCCCC2)n1,> 10.4 µM
11,CCN(CC)c1cc(C)c2cc(NC(=O)/C=C/c3ccccc3Cl)ccc2n1,> 10.4 µM
12,CON(C)C(=O)Nc1ccc(Cl)c(CN2OCC(C)(C)C2=O)c1,> 10.4 µM
13,Cc1ccsc1/C=C/C(=O)Nc1ccc2nc(N3CCCCC3)cc(C)c2c1,> 10.4 µM
14,CCCCC(O)(CCCC)C(=O)NNc1ccc(C)cc1,> 10.4 µM
15,CC(=O)NC1=C(N2CCN(c3ccc(F)cc3)CC2)C(=O)c2ccccc2C1=O,> 10.4 µM
16,COc1cc(C(=O)O/N=C(\N)c2ccncc2)cc(OC)c1OC,> 10.4 µM
17,COc1ccc(-c2nn(C3CC(=O)C4OCC3O4)c(=S)n2C)cc1OC (stereo not given),4.53 µM
18,Clc1ccc(-c2nnc(NCCN3CCCC3)c3ccccc23)cc1,> 10.4 µM
19,c1ccc(CCCNc2ccnc3cc4ccccc4cc23)cc1,> 10.4 µM
20,Cc1c(-c2ccc(O)c(O)c2)oc2ccccc2c1=O,> 10.4 µM
21,O=C(Nc1nc(-c2ccncc2)cs1)c1ccc(Oc2ccccc2)cc1,> 10.4 µM
22,COc1ccccc1NCN1C(=O)C(=O)c2cc(Br)ccc21,> 10.4 µM
23,O=C(CC1(O)C(=O)Nc2ccc(Br)cc21)c1ccc(Cl)s1 (stereo not given),> 10.4 µM
24,Cc1cc(C(=O)CN2CCCCC2)c(C)n1-c1ccc(Cl)c(Cl)c1,> 10.4 µM

row,SMILES,IC50
1,CC(Nc1cccc2ccccc12)C(=O)N/N=C/c1cccc(O)c1 (stereo not given),> 10.4 µM
2,COC(=O)c1cccc(Nc2nc(N)c(C(=O)CC(C)C)s2)c1,> 10.4 µM
3,O=C(CCN1CCC(c2ccccc2)C1)c1ccco1 (stereo not given),> 10.4 µM
4,Fc1ccc(C(OCCN2CCCC2)c2ccc(Br)cc2)cc1 (stereo not given),> 10.4 µM
5,CC(=O)Nc1cccc2c1C(=O)C(Cl)=C(N1CCOCC1)C2=O,> 10.4 µM
6,Cc1cc(N2CCC(C)CC2)nc2ccc(NC(=O)c3c(F)cccc3F)cc12,> 10.4 µM
7,N=C(NOC(=O)C12CC3CC(CC(C3)C1)C2)c1cccnc1,> 10.4 µM
8,CCn1c2ccccc2c2cc(/C=N/NC(=O)c3ccccn3)ccc21,> 10.4 µM
9,COC(=O)c1ccc2c(c1)C(C)(C)C(/C=C/c1cccc(OC)c1OC)=[N+]2C,> 10.4 µM
10,CCN(CC(O)COCCC12CC3CC(CC(C3)C1)C2)C1CCCCC1 (stereo not given),> 10.4 µM
11,Clc1ncnc2c1C(c1ccccc1)c1c(Cl)ncnc1O2,> 10.4 µM
12,CCN1/C(=C/C2=CC(=O)CC(C)(C)C2)Sc2ccccc21,5.4 µM
13,CCCC(=O)c1ccc(N2CCN(C(=O)c3c(F)cccc3F)CC2)c(F)c1,> 10.4 µM
14,COc1cccc(C2=CC(c3cc(OC)c(OC)c(OC)c3)n3nnnc3N2)c1 (stereo not given),> 10.4 µM
15,Cc1ccc(Nc2cc(C)nc(N3CCN(C(=O)c4ccco4)CC3)n2)cc1,> 10.4 µM
16,CCCc1ccc(C(OCCN(C)C)c2ccc(CCC)cc2)cc1,> 10.4 µM
17,CC1=C(C)C(=O)C(c2cccs2)=C(C)C1=O,> 10.4 µM
18,O=C(N/N=C/c1ccc(Br)cc1O)c1n[nH]c2c1CCC2,> 10.4 µM
19,NCC(OCc1ccc(-c2ccccc2)cc1)c1ccccc1 (stereo not given),> 10.4 µM
20,O=C(Nc1ccccc1C(=O)N/N=C/c1ccccc1O)c1ccccc1Cl,> 10.4 µM
21,CC(NC(=O)c1cc(S(=O)(=O)N2CCCC2)cn1C)c1ccccc1 (stereo not given),> 10.4 µM
22,c1ccc(Nc2n[n+](-c3ccccc3)nc3ccccc23)cc1,> 10.4 µM
23,Cc1ccc(O)c(C(=O)CC(=O)c2ccccc2C)c1,> 10.4 µM
24,Oc1ccc(Br)c2ccc(/C=C/c3ccccc3)nc12,> 10.4 µM

row,SMILES,IC50
1,CCOC(=O)c1ccc(NC(=O)C(=O)NN=C2CCN(C)CC2)cc1,> 10.4 µM
2,O=C(NCC1CCCO1)c1cnc2sc3c(n2c1=O)CCC3 (stereo not given),> 10.4 µM
3,CN1CCC(Oc2ccccc2Sc2ccc(C(F)(F)F)cc2)CC1,> 10.4 µM
4,CCC(=C\C1=[N+](C)c2ccccc2C1(C)C)/C=C1/N(C)c2ccccc2C1(C)C,> 10.4 µM
5,N#C/C(=C\Nc1cc(Cl)ccc1O)c1nc2cc(Cl)ccc2o1,> 10.4 µM
6,O=c1cc(-c2ccccc2)c2ccc(O)c(O)c2o1,> 10.4 µM
7,CCn1c2ccccc2c2cc(CNCCc3ccc(OC)c(OC)c3)ccc21,> 10.4 µM
8,COc1ccccc1C(=O)NCCc1csc(-c2cccc(F)c2)n1,> 10.4 µM
9,CCOc1cc2c(cc1OCC)C(c1ccccc1)N(c1ccccc1)C(=O)C2 (stereo not given),> 10.4 µM
10,Cc1nc(SCC(=O)NC2CCCCC2)n(-c2ccccc2)c1C,> 10.4 µM
11,COc1nc(Nc2ccc(Cl)cc2)nc(NC(C)(C)C)n1,> 10.4 µM
12,CCCCNc1ccc2cccc(O)c2n1,> 10.4 µM
13,CC(C)(C)C(=O)NN=c1c2ccccc2[nH]c2ccccc12,> 10.4 µM
14,CCOC(=O)COC1=C(c2ccccc2)C(=O)c2ccccc2C1=O,> 10.4 µM
15,CN(C)CCCC1=Cc2ccccc2Sc2ccccc21,> 10.4 µM
16,COc1ccccc1NC(=S)N/N=C/c1cccn1Cc1ccccc1F,> 10.4 µM
17,Cc1cc(C)n(-c2nc(N/N=C/c3cccs3)nc(Nc3ccccc3)n2)n1,> 10.4 µM
18,Cc1ccccc1C(=O)/C(C#N)=N/Nc1c(C)n(C)n(-c2ccccc2)c1=O,> 10.4 µM
19,COc1cc2c(cc1Cl)/C(=C\CCN(C)C)c1ccccc1S2,> 10.4 µM
20,O=C(N/N=C/c1cc(Cl)ccc1O)c1ccccc1Br,> 10.4 µM
21,Cc1ccc(N2CCN(c3ccc4nnc(C)n4n3)CC2)c(C)c1,> 10.4 µM

# Source: ChEMBL document CHEMBL2094269, “WEHI/Eskitis Trypanosoma b. brucei screening data”
